The text below walks through data of US10420753B2, “Combination therapies for treatment of spinal muscular atrophy” (Indiana University Research and Technology Corporation, priority 2016, dated 2019).

The test system of test [1] is SMN2 reporter (SMN2-luciferase) in HEK293 cells. Nature of the test: SMN2-luciferase reporter assay. In kind it is cell-based, human. The arrangement: % Activation: concentration or dose not given beside the values. The note with it: for EC50: Homo sapiens, HEK293; for % Activation: percentage increase over basal expression in DMSO control wells. The protocol:
(§1) In this high throughput screening assay, the SMN promoter was combined with exons 1-6 and an exon 7 splicing cassette in a single construct that should respond to compounds that increase SMN transcription, exon 7 inclusion, or that might stabilize the SMN RNA or protein. A stable clonal HEK293 cell line that expresses the SMN2 reporter was isolated. Particularly, cells were incubated at 37° C. with 5% CO2. HEK-293 cells were cultured in D-MEM (Gibco 11995) with 10% fetal bovine serum (FBS; Atlas) and 1× pen-strep (Gibco 15140). Reporter cell lines containing SMN1, SMN2, or SV40 driven firefly luciferase reporters and a control (renilla luciferase reporter) were selected and maintained in D-MEM with 10% FBS and 1× pen-strep with 200 μg/mL hygromycin B (Invitrogen 10687-010). 3813 and 3814 fibroblasts were cultured in D-MEM (Gibco 11995) with 10% fetal bovine serum (FBS; Atlas) and 1× pen-strep (Gibco 15140).
The HEK293 reporter cell lines were then plated at 50,000 cells per well in 96-well plates and incubated overnight. […] The final DMSO concentration was 0.1%. Luciferase activity was assayed with either SteadyGlo (Promega E2510) or DualGlo (Promega E2920) luciferase using the Pherastar FS (BMG Labtech) plate reader. For detailed assay conditions, see Table 4. All data points were transformed from light units to percentage increase over basal expression in the treated control wells (DMSO concentration as appropriate, usually 0.1%) and expressed as percent activation (FIG. 1A). […]
Background: In a reporter assay the amount or activity of a reporter protein is the signal.

Another test concerns SMNΔ7 SMA mice. In words: Survival of SMA mice. In kind it is in vivo. The following applies: 10 mg/kg IP daily. The protocol: Compound 291-88-1 was administered either by intraperitoneal (IP) administration into the SMA mice SMNΔ7 FVB.SMNΔ7; SMN2; Smn (Jackson Laboratories 005025). Daily treatment of SMNΔ7 animals with 10 mg/kg (IP) was continued as long as feasible. The lifespan of treated animals was compared to that of untreated animals and vehicle (VH) treated animals (FIG. 13). VH treated animals included treatment with 40% PEG400+60% (10% HP-β-CD in water). […] Treatment with compound 291-88-1 increased median survival to 18.5 days, p<0.0001.

The test system of test [2] is total SMN protein in brain extracts. In words: Brain SMN protein in treated mice, Western blot. In kind it is in vivo. The following applies: once daily subcutaneous or oral for 5 days from PND2, tissues PND7, dose-dependent. The protocol:
Animals were treated once daily (subcutaneous injection or oral) for 5 days, starting on postnatal day 2 (PND) with increasing doses of 291-88-1. On PND7, mice were sacrificed and tissues were harvested. Tissues were harvested from treated animals on PND 7 and compared to tissues from non-transgenic control mice (FVB) and VH (vehicle: PEG:PBS 50:50) treated animals. Brain extracts were assayed for total SMN protein in comparison to the housekeeping genes, actin and GAPDH (FIGS. 14 and 15, respectively). There was a dose-dependent increase in SMN protein levels ranging from 2-3 fold.
A general note: In western blotting, separated proteins are transferred to a membrane and probed.

The test system of another test is renilla luciferase. In words: Renilla luciferase control in cycloheximide experiment. The following applies: 10 μM compound plus 10 μM cycloheximide. In kind it is cell-based. As to the method: as §1
To investigate the mechanism of action of LDN291-88-1, the HEK293 SMN2 reporter cells were exposed to LDN291-88-1 at a concentration of 10 μM plus 10 μM cycloheximide to block new protein synthesis, or the same concentration of cycloheximide plus DMSO for comparison. Cell lysates were prepared at the times indicated up to 24 hours as in FIGS. 3A & 3B. The amount of SMN-luciferase protein was quantified by luciferase assay and plotted versus time. […]

For test [3], the system named is SMN protein in patient-derived fibroblasts (3813 cells; SMN1-/-SMN2+/+). In words: SMN protein detection in patient fibroblasts by Western blot. In kind it is cell-based, human. The following applies: 3813 fibroblasts, 48 hours, dose dependent, relative to DMSO control. As to the method:
For detection of SMN protein in patient fibroblasts, 8000 cells per cm^2 were plated 24 hours prior to compound addition. Since SMN is expressed ubiquitously, cells containing even one copy of the human SMN1 gene will mask the effects of compounds on expression from the SMN2 gene. SMN null cells are not viable. The current standard is to use a human cell line derived from a severe SMA patient. The fibroblast strain 3813 is SMN1 null with three copies of SMN2. […] SMN protein levels were analyzed by dose response in quantitative immunoblots with statistical analysis by one-way ANOVA with post-hoc analysis using Dunnett or Bonferroni, as appropriate. […] Quantification of protein was performed with the Fujifilm LAS-4000 Multifunctional Imaging System. The signal intensity was measured for each band on an immunoblot, normalized to the loading control, and the fold increase was determined in relation to the appropriate DMSO-treated control. Treatment of patient-derived fibroblasts (3813 cells; SMN1−/−SMN2+/+) with compound 291-88-1 gave a dose dependent 2-3 fold increase of SMN protein expression as determined by Western blot analysis (FIG. 1B).

Usually EC50 stands for the midpoint of the concentration-response curve. Turning to `O=C(Nc1nc2cnc(C(F)(F)F)cc2s1)c1ccno1` [Compound 324-26-1], in test [1], the midpoint of the response, the EC50, lay at 214 nM and the “% Activation” value came out at 193%.
Take `O=C(Nc1nc2cnc(C(F)(F)F)cc2s1)c1cnco1` [Compound 299-53-1]: in test [1], the EC50 amounted to 4400 nM and the “% Activation” value turned out to be 200%.
With `O=C(Nc1nc2cnc(C(F)(F)F)cc2s1)c1cc[nH]n1` [Compound 324-25-1], in test [1], the EC50 worked out at 2040 nM and the “% Activation” value worked out at 178%.
For `O=C(Nc1nc2cnc(C(F)(F)F)cc2s1)c1cnsc1` [Compound 324-44-1], in test [1], the 50% effective concentration (EC50) amounted to 380 nM and the “% Activation” value turned out to be 220%.
Turning to `O=C(Nc1nc2cnc(C(F)(F)F)cc2s1)c1nccs1` [Compound 311-85], in test [1], a half-maximal effect (EC50) was put at 163 nM and the “% Activation” value is on record as 218%.
Take `O=C(Nc1nc2cnc(C(F)(F)F)cc2s1)c1cncnc1` [Compound 301-90-1]: in test [1], it took 2700 nM to reach a half-maximal effect (EC50) and the “% Activation” value is on record as 170%.
With `O=C(Nc1nc2cnc(C(F)(F)F)cc2o1)c1ccccc1` [Compound 301-62-1], in test [1], a half-maximal effect (EC50) was put at 1250 nM and the “% Activation” value is 80%.
With `O=C(Nc1nc2ncc(C(F)(F)F)cc2s1)c1ccccc1` [Compound 287-98-2], in test [1], a half-maximal response (EC50) required 2300 nM and the “% Activation” value is given as 150%.
Turning to `Cc1cc(C(=O)Nc2nc3cnc(C(F)(F)F)cc3s2)no1` [Compound 324-33-1], in test [1], a half-maximal effect (EC50) was put at 5400 nM and the “% Activation” value is recorded as 110%.
Consider `O=C(Nc1nc2cnc(C(F)(F)F)cc2s1)c1ccns1` [Compound 324-36-1], for which, in test [1], a half-maximal effect (EC50) was put at 64 nM and the “% Activation” value was 198%.
For the compound `O=C(Nc1nc2cnc(C(F)(F)F)cc2s1)c1cccnc1` [Compound 299-16-1], in test [1], the midpoint of the response, the EC50, lay at 154 nM and the “% Activation” value is recorded as 177%.
As to `O=C(Nc1nc2cnc(C(F)(F)F)cc2s1)c1ccccc1` [Compound 291-88-1], the median survival in the test with SMNΔ7 SMA mice is given as 18.5 days. Besides, the “maximal increase in SMN-luciferase greater than the DMSO control” value in test [1] (48 hours, 3 μM) stood at 400%. In test [1], the EC50 was found to be 169 nM and the “% Activation” value came to 216%. Further, the “increase in SMN protein levels in brain” value in test [2] is 2-3 fold. For the same compound, in the test with renilla luciferase, the “effect on renilla luciferase” value was “no effect”. Further, the “increase of SMN protein expression” value in test [3] is recorded as 2-3 fold.
With `COc1cc2sc(NC(=O)c3ccccc3)nc2cn1` [Compound 324-2-1], in test [1], the EC50 was found to be 675 nM and the “% Activation” value was determined as 150%.
For `O=C(Nc1nc2cnc(C(F)(F)F)cc2s1)c1ncco1` [N-(6-trifluoromethyl)thiazolo[4,5-c]pyridin-2-yl)oxazole-2-carboxamide] the same measures were 1300 nM and 74%.
For the compound `O=C(Nc1nc2ncc(C(F)(F)F)cc2s1)c1cncs1` [Compound 299-10-1], in test [1], it took 3200 nM to reach a half-maximal effect (EC50) and the “% Activation” value was 112%.
For `O=C(Nc1nc2cnc(C(F)(F)F)cc2s1)c1cncs1` [Compound 299-93-1], in test [1], a half-maximal effect (EC50) was put at 142 nM and the “% Activation” value is 140%.
For the compound `O=C(Nc1nc2ncc(C(F)(F)F)cc2s1)c1ccccn1` [Compound 287-51-1], in test [1], the EC50 is 1000 nM and the “% Activation” value is recorded as 110%.
As for `O=C(Nc1nc2cnc(C(F)(F)F)cc2s1)c1ccsn1` [Compound 324-48-1], in test [1], the response was half-maximal at 335 nM (EC50) and the “% Activation” value came out at 210%.
Consider `O=C(Nc1nc2cnc(C(F)(F)F)cc2s1)c1cocn1` [Compound 299-54-1], for which, in test [1], a half-maximal response (EC50) required 1140 nM and the “% Activation” value stood at 208%.
Turning to `O=C(Nc1nc2cnc(C(F)(F)F)cc2s1)c1ccc(F)cc1` [Compound 311-65], in test [1], the EC50 is 612 nM and the “% Activation” value is on record as 87.5%.
For the compound `O=C(Nc1nc2cnc(C(F)(F)F)cc2s1)c1ccon1` [Compound 299-55-1], in test [1], the concentration giving a half-maximal response (EC50) came to 245 nM and the “% Activation” value came to 245%.
`O=C(Nc1nc2cnc(C(F)(F)F)cc2s1)c1ccccn1` [Compound 299-15-1]: in test [1], the midpoint of the response, the EC50, lay at 172 nM and the “% Activation” value came to 169.5%.
Regarding `O=C(Nc1nc2ncc(C(F)(F)F)cc2s1)c1cscn1` [Compound 299-9-1], in test [1], the midpoint of the response, the EC50, lay at 1220 nM and the “% Activation” value is 154%.
Regarding `O=C(Nc1nc2cnc(C(F)(F)F)cc2s1)c1ccncn1` [Compound 299-73-1], in test [1], a half-maximal effect (EC50) was put at 2680 nM and the “% Activation” value was found to be 162%.
With `O=C(Nc1nc2cnc(Cl)cc2s1)c1ccccc1` [Compound 299-1-1], in test [1], the midpoint of the response, the EC50, lay at 2020 nM and the “% Activation” value is recorded as 154%.
In the case of `O=C(Nc1nc2cnc(C(F)(F)F)cc2s1)c1ccnnc1` [Compound 299-63-1], in test [1], the EC50 came out at 11300 nM and the “% Activation” value was 163%.
For the compound `O=C(Nc1nc2cnc(C(F)(F)F)cc2s1)c1cscn1` [Compound 311-84], in test [1], a half-maximal response (EC50) required 620 nM and the “% Activation” value is given as 270%.
